Test results taken from patent publication US4603142A, “Cholesterol lowering method of use” (Wisconsin Alumni Research Foundation, priority 1984, dated 1986).

Columns and labels:
Fatty Acid Synthetase = assay: In vitro fatty acid synthetase activity in isolated hepatocytes of chicken; type: cell-based; conditions: incubation 15 minutes; for Fatty Acid Synthetase: means of two replicates
Description: (§1) These observed effects on lipogensis and cholesterogenesis could be attributed to the chemical constituents of HPBF, but clearly could not be attributed to the water insoluble plant fibers because they were not present in the latter feeding trials. Moreover, these effects were also obtained in vitro using isolated hepatocytes from chickens and rats. […] Proc. 42:1973 (Abstr.)]. Conditions for the in vitro evaluation of the solvent extracts have been described [Qureshi AA et al. (1983): Inhibition of cholesterol and fatty acid biosynthesis in liver enzymes and chicken hepatocytes by polar fractions of garlic, Lipids 18:343-348].
(§2) Cholesterol inhibitor I was re-chromatographed by HPLC and the UV absorption spectrum obtained. Maximum absorption occurred at 292 nm. This purified fraction was used for high resolution mass spectrometric analysis. Several scans were made using ionization temperatures from 90-180 degrees Centigrade to increase the possibility of detecting impurities. The high resolution mass spectrometric analysis and measurements of different peaks gave a molecular ion peak at m/e 424 and main peaks at m/e 385, 205 and 165 corresponding to C29 H44 O2 (molecular formula) C25 H36 O2, C13 H17 O2 and C10 H13 O2 moieties, respectively, which are characteristic fragmentation moieties for d-alpha-tocotrienol. Lemon grass oil is a rich source of d-alpha-tocotrienol. This product and cholesterol inhibitor I at 20 ppm were compared with the petroleum ether soluble fraction of HPBF (20% equivalent HPBF) in a group of older male White Leghorn chickens (Table 3). The results shown on Table 3 confirm those previously recorded for petroleum ether solubles of HPBF and cholestrol inhibitor I. In a final experiment, the effects of cholestrol inhibitor I and lemon grass oil on hepatocyte HMG Co-A reductase and FAS activities were tested. Both components tested in the concentration range 5-100 microgram/ml, produced a concentration-dependent suppression of HMG Co-A reductase and concentration-dependent enhancement of FAS activity (Table 4).
(§3) ^1 Tenweek-old female chickens were fed standard cornsoy diet. They
(§4) were fasted for 48 hrs. and refed 72 hrs. prior to the preparation of
(§5) ^2 Incubation period was 15 minutes. Values represent means of two
(§6) replicates within incubation set.
^4 nmoles of NADPH oxidized per minute per mg of cytosolic fraction.

[1] = target: T1, β-hydroxy-β-methylglutaryl-CoA reductase (Homo sapiens, UniProt P04035); assay: In vitro HMG-CoA reductase activity in isolated hepatocytes of chicken; type: cell-based; conditions: incubation 15 minutes; for β-Hydroxy-β Methylglutaryl-CoA Reductase: means of two replicates
T1 construct: ISOLATED HEPATOCYTES OF CHICKEN; endogenous in cells; host or cells: isolated hepatocytes of chicken
T1 sequence (P04035 1-888): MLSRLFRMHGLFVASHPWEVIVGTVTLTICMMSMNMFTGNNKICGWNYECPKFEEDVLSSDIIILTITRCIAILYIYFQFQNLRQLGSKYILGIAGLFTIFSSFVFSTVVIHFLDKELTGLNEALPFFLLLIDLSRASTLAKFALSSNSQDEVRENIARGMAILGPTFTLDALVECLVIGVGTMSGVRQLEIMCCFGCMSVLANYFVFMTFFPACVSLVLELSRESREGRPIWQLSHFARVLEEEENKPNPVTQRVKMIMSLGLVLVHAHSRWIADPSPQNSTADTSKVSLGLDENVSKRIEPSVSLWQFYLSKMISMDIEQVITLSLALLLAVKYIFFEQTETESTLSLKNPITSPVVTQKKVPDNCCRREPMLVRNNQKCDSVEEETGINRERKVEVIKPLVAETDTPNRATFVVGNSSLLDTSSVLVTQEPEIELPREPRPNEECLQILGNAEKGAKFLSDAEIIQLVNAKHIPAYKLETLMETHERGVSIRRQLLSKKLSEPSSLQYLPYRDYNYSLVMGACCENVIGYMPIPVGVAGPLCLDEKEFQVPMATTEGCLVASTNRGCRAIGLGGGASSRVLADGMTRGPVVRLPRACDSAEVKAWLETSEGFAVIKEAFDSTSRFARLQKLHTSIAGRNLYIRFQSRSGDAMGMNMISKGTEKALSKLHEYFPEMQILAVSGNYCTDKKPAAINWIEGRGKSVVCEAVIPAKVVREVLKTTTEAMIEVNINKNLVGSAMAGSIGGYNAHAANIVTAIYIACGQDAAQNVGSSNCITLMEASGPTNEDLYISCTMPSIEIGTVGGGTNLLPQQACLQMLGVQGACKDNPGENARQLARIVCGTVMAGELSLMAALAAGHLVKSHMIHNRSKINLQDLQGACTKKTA
Description: as §1, §2, §3, §4, §5, §6
^3 pmoles of mevalonic acid synthesized per minute per mg of […]

β-Hydroxy-β Methylglutaryl-CoA Reductase ([1]; 5 μg/ml): 45 pmoles of mevalonic acid synth
β-Hydroxy-β Methylglutaryl-CoA Reductase ([1]; 10 μg/ml): 40 pmoles of mevalonic acid synth
β-Hydroxy-β Methylglutaryl-CoA Reductase ([1]; 15 μg/ml): 31 pmoles of mevalonic acid synth
β-Hydroxy-β Methylglutaryl-CoA Reductase ([1]; 20 μg/ml): 30 pmoles of mevalonic acid synth
β-Hydroxy-β Methylglutaryl-CoA Reductase ([1]; 25 μg/ml): 28 pmoles of mevalonic acid synth
β-Hydroxy-β Methylglutaryl-CoA Reductase ([1]; 50 μg/ml): 22 pmoles of mevalonic acid synth
β-Hydroxy-β Methylglutaryl-CoA Reductase ([1]; 100 μg/ml): 23 pmoles of mevalonic acid synth
remaining activity at 5 µg/mL ([1]; 0.25 h, 5 μg/ml, read-out: β-Hydroxy-β Methylglutaryl-CoA Reductase, percentage of control): 87%
remaining activity at 10 µg/mL ([1]; 0.25 h, 10 μg/ml, read-out: β-Hydroxy-β Methylglutaryl-CoA Reductase, percentage of control): 77%
remaining activity at 15 µg/mL ([1]; 0.25 h, 15 μg/ml, read-out: β-Hydroxy-β Methylglutaryl-CoA Reductase, percentage of control): 60%
remaining activity at 20 µg/mL ([1]; 0.25 h, 20 μg/ml, read-out: β-Hydroxy-β Methylglutaryl-CoA Reductase, percentage of control): 57%
remaining activity at 25 µg/mL ([1]; 0.25 h, 25 μg/ml, read-out: β-Hydroxy-β Methylglutaryl-CoA Reductase, percentage of control): 54%
remaining activity at 50 µg/mL ([1]; 0.25 h, 50 μg/ml, read-out: β-Hydroxy-β Methylglutaryl-CoA Reductase, percentage of control): 42%
remaining activity at 100 µg/mL ([1]; 0.25 h, 100 μg/ml, read-out: β-Hydroxy-β Methylglutaryl-CoA Reductase, percentage of control): 44%
Compound: CC(C)=CCC/C(C)=C/CC/C(C)=C/CC[C@]1(C)CCc2c(C)c(O)c(C)c(C)c2O1 [Cholesterol inhibitor I, 2,5,7,8-tetramethyl-2 (4,8, 12-trimethyltrideca-3,7, 11-trienyl)chroman-6-ol]
Fatty Acid Synthetase, percentage of control (Fatty Acid Synthetase; 5 μg/ml): 122 Percentage of respective contr
Fatty Acid Synthetase (Fatty Acid Synthetase; 5 μg/ml): 88 nmoles of NADPH oxidized per m
Fatty Acid Synthetase, percentage of control (Fatty Acid Synthetase; 10 μg/ml): 135 Percentage of respective contr
Fatty Acid Synthetase (Fatty Acid Synthetase; 10 μg/ml): 97 nmoles of NADPH oxidized per m
Fatty Acid Synthetase, percentage of control (Fatty Acid Synthetase; 15 μg/ml): 156 Percentage of respective contr
Fatty Acid Synthetase (Fatty Acid Synthetase; 15 μg/ml): 112 nmoles of NADPH oxidized per m
Fatty Acid Synthetase, percentage of control (Fatty Acid Synthetase; 20 μg/ml): 175 Percentage of respective contr
Fatty Acid Synthetase (Fatty Acid Synthetase; 20 μg/ml): 126 nmoles of NADPH oxidized per m
Fatty Acid Synthetase, percentage of control (Fatty Acid Synthetase; 25 μg/ml): 188 Percentage of respective contr
Fatty Acid Synthetase (Fatty Acid Synthetase; 25 μg/ml): 135 nmoles of NADPH oxidized per m
Fatty Acid Synthetase, percentage of control (Fatty Acid Synthetase; 50 μg/ml): 188 Percentage of respective contr
Fatty Acid Synthetase (Fatty Acid Synthetase; 50 μg/ml): 148 nmoles of NADPH oxidized per m
Fatty Acid Synthetase, percentage of control (Fatty Acid Synthetase; 100 μg/ml): 214 Percentage of respective contr
Fatty Acid Synthetase (Fatty Acid Synthetase; 100 μg/ml): 154 nmoles of NADPH oxidized per m
